Experimental data as given in paper PMC8234620, “An Integrated Peptidomics and In Silico Approach to Identify Novel Anti-Diabetic Peptides in Parmigiano-Reggiano Cheese” (Biology, 2021).

Key:
[1] = design: method as in BIOPEP database and Milk Bioactive Peptides Database; settings: ref BIOPEP database and Milk Bioactive Peptides Database; cited from earlier work
[2] = tested on: Staphylococcus aureus, Streptococcus pyogenes, and Listeria monocytogenes; design: method as in PMID 8603791; settings: mice; ref [50]; cited from earlier work
[3] = design: method as in BIOPEP database and Milk Bioactive Peptides Database; settings: ref BIOPEP database and Milk Bioactive Peptides Database; cited from earlier work; remark: listed apart in the source
[4] = target: T1, porcine pancreatic α-amylase (Sus scrofa, UniProt P00690); assay: α-Amylase assay; format: biochemical; settings: synthetic peptides; n.a. = not active
T1 sequence (P00690 16-511): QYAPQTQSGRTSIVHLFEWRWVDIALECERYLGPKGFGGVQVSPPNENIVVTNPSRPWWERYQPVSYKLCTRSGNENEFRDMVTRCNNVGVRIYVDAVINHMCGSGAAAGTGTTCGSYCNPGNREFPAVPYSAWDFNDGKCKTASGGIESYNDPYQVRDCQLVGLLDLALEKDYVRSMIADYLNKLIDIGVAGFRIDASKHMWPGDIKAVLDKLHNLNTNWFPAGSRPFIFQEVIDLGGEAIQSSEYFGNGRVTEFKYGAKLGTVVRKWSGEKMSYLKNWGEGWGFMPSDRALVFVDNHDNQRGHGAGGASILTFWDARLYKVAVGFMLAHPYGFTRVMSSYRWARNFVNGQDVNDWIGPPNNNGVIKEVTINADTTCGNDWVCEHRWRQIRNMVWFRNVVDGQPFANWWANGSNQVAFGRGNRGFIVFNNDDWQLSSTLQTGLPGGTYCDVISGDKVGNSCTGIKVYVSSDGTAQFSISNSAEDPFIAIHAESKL
Description: α-Amylase assay was performed in accordance with McDougall et al. adapted to a microplate reader. For the reaction, 5 μL of 2 U/mL of porcine pancreatic α-amylase (dissolved in sodium phosphate buffer 20 mmol/L pH 6.9 containing 6.7 mmol/L NaCl) were mixed with 45 μL of sodium phosphate buffer or different concentrations of water-soluble low-molecular weight peptide extracts. The mixture was incubated at 37 °C for 20 min before adding 50 μL of 1% starch solution. The reaction was carried out at 37 °C for 10 min and stopped by the addition of dinitrosalicylic acid solution, followed by 15 min boiling in a water bath. After the addition of 450 μL of water, 200 μL of solution was transferred in a 96-well plate and the absorbance was read at 540 nm. Results were expressed as IC50, namely the peptides concentration (expressed in mg/mL) able to inhibit the enzymatic activity by 50%. The IC50 values were calculated by plotting the peptide concentration (base-10 logarithm) as a function of the percentage of enzyme inhibition.
(§1) Selected peptides were then synthesized (Bio-Fab Research, Rome, Italy) and tested for their inhibitory activity against DPP-IV, α-glucosidase, and α-amylase. The assays were carried out as reported in Section 2.3. The results were expressed as IC50 values.

yeast α-glucosidase = yeast α-glucosidase (Saccharomyces cerevisiae, UniProt P53341); assay: α-Glucosidase assay; format: biochemical; settings: synthetic peptides; n.a. = not active
Description: α-Glucosidase assay was performed as reported in Bellesia et al., adapted to a microplate reader. The reaction was performed by mixing 66.7 μL of potassium phosphate buffer (67 mmol/L, pH 6.8), 3.3 μL of glutathione 3 mmol/L, 20 μL of different concentrations of water-soluble low-molecular weight peptide extracts, and 5 μL of yeast α-glucosidase 0.2 U/mL. After 20 min of incubation at 37 °C, the reaction was started by the addition of 5 μL of p-nitrophenyl-glucose 5 mmol/L. After a further 20 min of incubation at 37 °C, the reaction was stopped by the addition of 150 μL of Na2CO3 100 mmol/L. The amount of released p-nitrophenol was determined by reading at 405 nm with a microplate reader. Results were expressed as IC50 as reported above.
as §1

rat intestinal DPP-IV = target: T2, rat intestinal DPP-IV (Rattus norvegicus, UniProt P14740); assay: Dipeptidyl peptidase IV (DPP-IV) assay; format: biochemical; settings: synthetic peptides
T2 construct: 10 μL of rat intestinal DPP-IV (0.1 U/mL in the assay); from tissue; host or cells: rat intestine
Description: DPP-IV assay was performed as described in Tagliazucchi et al.. Briefly, in a 96-well plate, 10 μL of rat intestinal DPP-IV (0.1 U/mL in the assay) were mixed with 145 μL of Tris-HCl buffer (pH 7.0; 0.1 mol/L) and 40 μL of different concentrations of water-soluble low-molecular weight peptide extracts. After 20 min of incubation at 37 °C, the reaction was started by the addition of 5 μL of glycine-proline-p-nitroanilide (6.4 mmol/L). The amount of released p-nitroanilide was determined after 20 min of incubation at 37 °C by reading at 405 nm in a microplate reader. Results were expressed as IC50 as reported above.
as §1

[5] = tested on: angiotensin converting enzyme; settings: cited from earlier work
[6] = design: method as in BIOPEP database and Milk Bioactive Peptides Database; settings: ref BIOPEP database and Milk Bioactive Peptides Database; cited from earlier work; remark: listed apart in the source
[7] = design: method as in PMID 27572703, PMID 33337010; settings: mild hypertensive subjects; ref [47],[58]; cited from earlier work
[8] = design: method as in BIOPEP database and Milk Bioactive Peptides Database; settings: ref BIOPEP database and Milk Bioactive Peptides Database; cited from earlier work; remark: listed apart in the source

Sequence of yeast α-glucosidase (P53341 whole entry): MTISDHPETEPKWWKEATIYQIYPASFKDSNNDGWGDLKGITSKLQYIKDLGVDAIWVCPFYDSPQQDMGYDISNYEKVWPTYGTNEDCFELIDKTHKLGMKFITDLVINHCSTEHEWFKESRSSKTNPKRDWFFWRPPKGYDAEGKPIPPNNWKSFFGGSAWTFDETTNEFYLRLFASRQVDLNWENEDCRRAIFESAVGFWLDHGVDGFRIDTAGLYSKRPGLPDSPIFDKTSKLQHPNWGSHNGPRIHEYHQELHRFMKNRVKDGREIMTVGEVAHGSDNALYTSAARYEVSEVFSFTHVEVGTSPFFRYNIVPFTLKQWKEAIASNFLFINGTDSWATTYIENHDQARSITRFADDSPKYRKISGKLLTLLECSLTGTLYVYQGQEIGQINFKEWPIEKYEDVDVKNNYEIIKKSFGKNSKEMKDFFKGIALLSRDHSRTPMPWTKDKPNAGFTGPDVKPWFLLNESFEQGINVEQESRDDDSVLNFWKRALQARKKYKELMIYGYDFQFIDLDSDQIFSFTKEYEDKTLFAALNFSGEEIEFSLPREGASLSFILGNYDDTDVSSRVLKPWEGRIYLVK
T2 sequence (P14740 whole entry): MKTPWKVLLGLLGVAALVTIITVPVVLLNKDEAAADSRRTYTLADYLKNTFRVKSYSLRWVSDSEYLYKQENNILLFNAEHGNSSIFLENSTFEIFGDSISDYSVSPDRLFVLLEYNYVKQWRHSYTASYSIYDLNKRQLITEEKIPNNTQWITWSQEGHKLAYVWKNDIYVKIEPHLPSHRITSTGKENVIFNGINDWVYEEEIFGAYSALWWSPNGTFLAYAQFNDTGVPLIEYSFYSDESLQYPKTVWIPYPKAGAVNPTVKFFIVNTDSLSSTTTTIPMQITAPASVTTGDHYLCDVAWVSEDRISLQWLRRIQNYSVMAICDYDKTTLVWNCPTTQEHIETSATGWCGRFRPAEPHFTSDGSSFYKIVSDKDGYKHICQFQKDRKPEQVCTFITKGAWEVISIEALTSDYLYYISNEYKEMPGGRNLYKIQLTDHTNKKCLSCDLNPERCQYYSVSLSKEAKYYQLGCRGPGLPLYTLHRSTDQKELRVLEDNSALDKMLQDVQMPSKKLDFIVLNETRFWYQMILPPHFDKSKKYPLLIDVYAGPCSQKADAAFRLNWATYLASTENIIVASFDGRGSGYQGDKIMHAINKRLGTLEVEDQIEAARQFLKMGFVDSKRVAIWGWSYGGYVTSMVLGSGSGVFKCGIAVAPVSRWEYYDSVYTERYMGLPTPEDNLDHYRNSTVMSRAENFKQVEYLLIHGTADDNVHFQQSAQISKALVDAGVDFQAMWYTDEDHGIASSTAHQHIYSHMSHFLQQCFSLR

RPKHPIKHQGLPQEVLNENLLRF [αS1-casein f(1–23), anti-microbial peptide isracidin]
Bioactivity: Anti-microbial [1]: Anti-microbial | in vivo anti-microbial effect [2]: protecting mice | Bioactivity: Immunomodulation [3]: Immunomodulation

CC[C@H](C)[C@H](N)C(=O)N1CCC[C@H]1C(=O)N1CCC[C@H]1C(=O)O [IPP]
IC50 [4]: 763 ± 18.9 µM | IC50 (yeast α-glucosidase): 765 ± 15 µM | IC50 (rat intestinal DPP-IV): 169 ± 2.2 µM

VPP
Bioactivity: ACE-inhibition ([5]; ref BIOPEP database and Milk Bioactive Peptides Database): ACE-inhibition | IC50 values against ACE ([5]; ref [47],[48],[49]): very low | Bioactivity: Antioxidant [6]: Antioxidant | in vivo anti-hypertensive effect [7]: anti-hypertensive effect | Bioactivity: Anti-inflammatory [8]: Anti-inflammatory
